Patent US10039753B2, “Imidazo[4,5-c]quinoline and imidazo[4,5-c][1,5]naphthyridine derivatives as LRRK2 inhibitors” (Pfizer Inc., priority 2015, dated 2018)
Structures can show the parent of a compound that is named as a salt.

Key:
mutant G2019S LRRK2 [1] = target: T1, mutant G2019S LRRK2 (Homo sapiens, UniProt Q5S007, G2019S); assay: LRRK2 Assay, Format 2 (Lantha Screen), G2019S mutant; type: biochemical; parameters: purchased Invitrogen PV4881; conditions: geometric mean of 2-4 determinations unless otherwise indicated (a: >=5; b: single determination); read-out: LRRK2, Format 2 G2019S IC50
mutant G2019S LRRK2 [2] = target: T1, mutant G2019S LRRK2; assay: LRRK2 Assay, Format 1 (Lantha Screen), G2019S mutant
Description: LRRK2 kinase activity was measured using Lantha Screen technology from Invitrogen. GST-tagged truncated LRRK2 from Invitrogen (Cat # PV4874) was incubated with a fluorescein-labeled peptide substrate based upon ezrin/radixin/moesin (ERM), also known as LRRKtide (Invitrogen cat # PR8976A), in the presence of a dose response of compound. Upon completion, the assay was stopped and detected with a terbium labeled anti-phospho-ERM antibody (Invitrogen, cat # PR8975A). […] Aliquots (3.5 μL) of the 100% DMSO dose response were mixed with 46.5 μL water then 1 μL of this mixture was added to the 3 μL substrate mix in the 384-well plate. The kinase reaction was started with 3 μL of a working solution of LRRK2 enzyme at a concentration of 4 μg/mL. […] The reaction was allowed to progress at room temperature for two hours and then stopped with the addition of 7 μL of detection buffer (20 mM Tris pH 7.6, 0.01% NP-40, 0.02% NaN3, 6 mM EDTA with 2 nM terbium labeled anti-phospho-ERM).
All final concentrations of substrate ATP and enzyme were the same.

[3] = target: T2, GST-tagged truncated LRRK2 (Homo sapiens, UniProt Q5S007); assay: LRRK2 Assay, Format 1 (Lantha Screen), WT; type: biochemical
T2 construct: GST-tagged truncated LRRK2 from Invitrogen (Cat # PV4874); GST; purchased Invitrogen PV4874
Method in brief: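 Kinase activity measured by TR-FRET: GST-tagged truncated LRRK2 (4 μg/mL working solution) reacted with fluorescein-labeled LRRKtide (ERM-based peptide) across a compound dose response for 2 h at room temperature. Reaction stopped with EDTA-containing detection buffer (20 mM Tris pH 7.6) holding 2 nM terbium anti-phospho-ERM antibody.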

[4] = target: T2, GST-tagged truncated LRRK2; assay: LRRK2 Assay, Format 2 (Lantha Screen), WT; type: biochemical; conditions: geometric mean of 2-4 determinations unless otherwise indicated (a: >=5; b: single determination)
[5] = Format 1, wild-type LRRK2, geometric mean of 2-4 determinations unless footnoted (a: ≥5 determinations; b: single determination; c: determined on trifluoroacetate salt)
[6] = 100 nM LRRKtide, 50 μM ATP, 1.7 μg/mL LRRK2 enzyme, two hours at room temperature

T1 sequence (Q5S007 970-2527 G2019S limits assumed): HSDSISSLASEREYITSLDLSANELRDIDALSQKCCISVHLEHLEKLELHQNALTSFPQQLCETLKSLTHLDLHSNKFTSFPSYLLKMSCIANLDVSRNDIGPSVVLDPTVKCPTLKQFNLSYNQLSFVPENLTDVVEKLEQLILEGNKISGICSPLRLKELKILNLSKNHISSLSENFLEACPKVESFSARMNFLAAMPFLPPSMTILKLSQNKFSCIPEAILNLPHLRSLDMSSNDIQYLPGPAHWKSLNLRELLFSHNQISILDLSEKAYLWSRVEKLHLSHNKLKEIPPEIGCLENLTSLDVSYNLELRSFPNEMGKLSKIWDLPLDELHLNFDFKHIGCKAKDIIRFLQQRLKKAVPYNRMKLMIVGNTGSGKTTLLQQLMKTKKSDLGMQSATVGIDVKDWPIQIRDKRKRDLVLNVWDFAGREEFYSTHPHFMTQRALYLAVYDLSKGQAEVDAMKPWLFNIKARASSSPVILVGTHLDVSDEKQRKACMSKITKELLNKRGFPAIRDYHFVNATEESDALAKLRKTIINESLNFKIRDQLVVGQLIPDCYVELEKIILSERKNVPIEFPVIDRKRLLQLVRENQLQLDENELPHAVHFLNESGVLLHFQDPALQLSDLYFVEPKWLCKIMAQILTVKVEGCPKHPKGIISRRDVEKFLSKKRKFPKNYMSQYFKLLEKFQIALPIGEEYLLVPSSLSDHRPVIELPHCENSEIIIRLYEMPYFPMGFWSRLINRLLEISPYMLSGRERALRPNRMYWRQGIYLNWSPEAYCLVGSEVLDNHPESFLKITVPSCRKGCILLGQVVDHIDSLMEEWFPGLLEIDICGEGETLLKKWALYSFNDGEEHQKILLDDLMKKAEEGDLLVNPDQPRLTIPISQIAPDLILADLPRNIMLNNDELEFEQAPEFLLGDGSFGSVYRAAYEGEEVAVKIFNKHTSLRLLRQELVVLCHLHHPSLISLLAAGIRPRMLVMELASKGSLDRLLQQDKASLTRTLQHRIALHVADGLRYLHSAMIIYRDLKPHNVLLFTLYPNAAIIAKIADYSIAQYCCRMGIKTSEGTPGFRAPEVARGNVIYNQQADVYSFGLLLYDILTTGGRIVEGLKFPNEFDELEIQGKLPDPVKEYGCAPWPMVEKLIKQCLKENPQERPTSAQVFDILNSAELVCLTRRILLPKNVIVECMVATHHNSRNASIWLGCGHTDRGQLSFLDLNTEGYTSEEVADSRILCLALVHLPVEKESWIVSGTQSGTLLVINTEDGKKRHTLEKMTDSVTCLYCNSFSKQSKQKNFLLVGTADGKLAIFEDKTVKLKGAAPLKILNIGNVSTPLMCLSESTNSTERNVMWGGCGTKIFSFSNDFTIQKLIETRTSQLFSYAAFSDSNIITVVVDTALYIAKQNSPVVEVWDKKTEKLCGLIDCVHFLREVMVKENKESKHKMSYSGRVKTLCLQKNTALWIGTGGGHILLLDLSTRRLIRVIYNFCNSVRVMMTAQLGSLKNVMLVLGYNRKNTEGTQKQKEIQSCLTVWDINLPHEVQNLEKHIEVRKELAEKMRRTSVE
T2 sequence (Q5S007 970-2527 limits assumed): as the sequence (Q5S007 970-2527 G2019S limits assumed) above, with S1050G counted along it

SMILES	IC50 (mutant G2019S LRRK2 [2]) [nM]	IC50 [3, 5] [nM]	further results
C[C@@H]1C[C@H](n2c(Cc3cc(C4CC4)on3)nc3cnc4ccc(Br)cc4c32)CCO1 [Example 172, 8-bromo-2-[(5-cyclopropyl-1,2-oxazol-3-yl)methyl]-1-[(2R,4R)-2-methyltetrahydro-2H-pyran-4-yl]-1H-imidazo[4,5-c]quinoline]	9.17	–	IC50 (mutant G2019S LRRK2 [1]): 6.34 nM; IC50 ([3]; geometric mean of 2-4 determinations unless otherwise indicated): 14.4 nM; IC50 [4]: 6 nM
Clc1ccc2ncc3nc(Cc4ccon4)n(C4CCOCC4)c3c2c1 [Example 63, 8-chloro-2-(1,2-oxazol-3-ylmethyl)-1-(tetrahydro-2H-pyran-4-yl)-1H-imidazo[4,5-c]quinoline, formate salt]	12.1	16.1	–
Fc1ccc2ncc3nc(Cn4cc5ccccc5n4)n(C4CCOCC4)c3c2c1 [Example 76, 8-fluoro-2-(2H-indazol-2-ylmethyl)-1-(tetrahydro-2H-pyran-4-yl)-1H-imidazo[4,5-c]quinoline, trifluoroacetate salt]	54.5	67.5	–
C[C@@H]1C[C@H](n2c(Cc3ccon3)nc3cnc4ccc(Cl)cc4c32)CCO1 [Example 52, 8-chloro-1-[(2R,4R)-2-methyltetrahydro-2H-pyran-4-yl]-2-(1,2-oxazol-3-ylmethyl)-1H-imidazo[4,5-c]quinoline]	2.7	4.1	–
COc1ccc2ncc3nc(Cc4noc(C)n4)n([C@@H]4CCO[C@H](C)C4)c3c2c1 [Example 87, 8-methoxy-2-[(5-methyl-1,2,4-oxadiazol-3-yl)methyl]-1-[(2R,4R)-2-methyltetrahydro-2H-pyran-4-yl]-1H-imidazo[4,5-c]quinoline]	38.8	111	–
CC1(C)CC(n2c(Cc3cscn3)nc3cnc4ccccc4c32)CCO1 (centres unmarked) [Example 72, 1-(2,2-dimethyltetrahydro-2H-pyran-4-yl)-2-(1,3-thiazol-4-ylmethyl)-1H-imidazo[4,5-c]quinoline, trifluoroacetate salt]	170	156	–
Fc1ccc2ncc3nc(Cn4cc(C(F)(F)F)nn4)n(C4CCOCC4)c3c2c1 [Example 74, 8-fluoro-1-(tetrahydro-2H-pyran-4-yl)-2-{[4-(trifluoromethyl)-1H-1,2,3-triazol-1-yl]methyl}-1H-imidazo[4,5-c]quinoline, trifluoroacetate salt]	102	112	–
c1ccc2c(c1)ncc1nc(Cn3cncn3)n(C3CCOCC3)c12 [Example 30, 1-(tetrahydro-2H-pyran-4-yl)-2-(1H-1,2,4-triazol-1-ylmethyl)-1H-imidazo[4,5-c]quinoline]	146	120	–
C[C@@H]1C[C@H](n2c(CC#N)nc3cnc4ccc(Cl)cc4c32)CCO1 [Example 9, {8-Chloro-1-[(2R,4R)-2-methyltetrahydro-2H-pyran-4-yl]-1H-imidazo[4,5-c]quinolin-2-yl}acetonitrile]	6.4	6.3	–
F[C@H]1CC[C@@H](n2c(Cc3nc4ccccc4o3)nc3cnc4ccccc4c32)C1 [Example 28, 2-(1,3-benzoxazol-2-ylmethyl)-1-[(1R,3S)-3-fluorocyclopentyl]-1H-imidazo[4,5-c]quinoline]	157	153	–
C[C@H]1C[C@@H](n2c(Cc3ccon3)nc3cnc4ccc(F)cc4c32)CCO1 [enantiomer of Example 54, 8-fluoro-1-[(2S,4S)-2-methyltetrahydro-2H-pyran-4-yl]-2-(1,2-oxazol-3-ylmethyl)-1H-imidazo[4,5-c]quinoline]	236	–	IC50 [3, 6]: 332 nM
Fc1ccc2ncc3nc(Cc4cn5ncsc5n4)n(C4CCOCC4)c3c2c1 [Example 82, 8-fluoro-2-(imidazo[2,1-b][1,3,4]thiadiazol-6-ylmethyl)-1-(tetrahydro-2H-pyran-4-yl)-1H-imidazo[4,5-c]quinoline, trifluoroacetate salt]	16.2	17.6	–
C[C@H]1C[C@@H](n2c(Cc3cscn3)nc3cnc4ccc(Br)cc4c32)CCO1 (racemic) [Example 56, 8-bromo-1-(cis-2-methyltetrahydro-2H-pyran-4-yl)-2-(1,3-thiazol-4-ylmethyl)-1H-imidazo[4,5-c]quinoline]	5.2	10	–
F[C@H]1CC[C@@H](n2c(Cn3cncn3)nc3cnc4ccccc4c32)C1 [Example 26, 1-[(1R,3S)-3-fluorocyclopentyl]-2-(1H-1,2,4-triazol-1-ylmethyl)-1H-imidazo[4,5-c]quinoline]	155	162	–
C[C@@H]1C[C@H](n2c(Cc3cn4ncsc4n3)nc3cnc4ccc(Cl)cc4c32)CCO1 [Example 8, 8-Chloro-2-(imidazo[2,1-b][1,3,4]thiadiazol-6-ylmethyl)-1-[(2R,4R)-2-methyltetrahydro-2H-pyran-4-yl]-1H-imidazo[4,5-c]quinoline]	3.1	4.4	–
C[C@@H]1C[C@H](n2c(Cn3cncn3)nc3cnc4ccc(Cl)cc4c32)CCO1 (single isomer, unassigned) [Example 65]	1.8	2.8	–
COc1ccc(Cc2nc3cnc4ccc(Cl)cc4c3n2[C@@H]2CCO[C@H](C)C2)nc1 [Example 2, 8-Chloro-2-[(5-methoxypyridin-2-yl)methyl]-1-[(2R,4R)-2-methyltetrahydro-2H-pyran-4-yl]-1H-imidazo[4,5-c]quinoline]	5.6	6.8	–
c1ccc2c(c1)ncc1nc(Cc3noc4ccccc34)n(C3CCOCC3)c12 [Example 29, 2-(1,2-benzoxazol-3-ylmethyl)-1-(tetrahydro-2H-pyran-4-yl)-1H-imidazo[4,5-c]quinoline]	226	164	–
C[C@@H]1C[C@H](n2c(Cc3ccon3)nc3cnc4ccc(C#N)cc4c32)CCO1 [Example 22, 1-[(2R,4R)-2-methyltetrahydro-2H-pyran-4-yl]-2-(1,2-oxazol-3-ylmethyl)-1H-imidazo[4,5-c]quinoline-8-carbonitrile]	3.9	5.2	–
Cc1nn2cc(Cc3nc4cnc5ccc(F)cc5c4n3C3CCOC(C)(C)C3)nc2s1 (centres unmarked) [Example 83, 1-(2,2-dimethyltetrahydro-2H-pyran-4-yl)-8-fluoro-2-[(2-methylimidazo[2,1-b][1,3,4]thiadiazol-6-yl)methyl]-1H-imidazo[4,5-c]quinoline, trifluoroacetate salt]	21.2	25.4	–
FC1(F)CCC(n2c(Cc3ccon3)nc3cnc4ccccc4c32)CC1 [Example 48, 1-(4,4-difluorocyclohexyl)-2-(1,2-oxazol-3-ylmethyl)-1H-imidazo[4,5-c]quinoline]	118	194	–
CC1(C)CC(n2c(Cn3cc(C4CC4)nn3)nc3cnc4ccc(F)cc4c32)CCO1 (centres unmarked) [Example 79, 2-[(4-cyclopropyl-1H-1,2,3-triazol-1-yl)methyl]-1-(2,2-dimethyltetrahydro-2H-pyran-4-yl)-8-fluoro-1H-imidazo[4,5-c]quinoline, trifluoroacetate salt]	47.3	53.8	–
C[C@H]1C[C@@H](n2c(Cc3ccon3)nc3cnc4ccc(C#N)cc4c32)CCO1 [enantiomer of Example 22, 1-[(2 S,4S)-2-methyltetrahydro-2H-pyran-4-yl]-2-(1,2-oxazol-3-ylmethyl)-1H-imidazo[4,5-c]quinoline-8-carbonitrile]	258	–	IC50 [3, 6]: 534 nM
C[C@@H]1C[C@H](n2c(Cc3cscn3)nc3cnc4ccc(C#N)cc4c32)CCO1 [Example 57, 1-[(2R,4R)-2-methyltetrahydro-2H-pyran-4-yl]-2-(1,3-thiazol-4-ylmethyl)-1H-imidazo[4,5-c]quinoline-8-carbonitrile]	4	6.1	–
FC1(F)CCCCC1n1c(Cc2ccon2)nc2cnc3ccccc3c21 (centres unmarked) [Example 46, 1-(2,2-difluorocyclohexyl)-2-(1,2-oxazol-3-ylmethyl)-1H-imidazo[4,5-c]quinoline]	90.8	186	–
COc1ccc2ncc3nc(Cc4cc(C)on4)n([C@@H]4CCO[C@H](C)C4)c3c2c1 (single isomer, unassigned) [Example 1]	14.4	39.3	–
Cc1nc2cnc3ccc(C#N)cc3c2n1C1CCOCC1 [Example 14, 2-methyl-1-(tetrahydro-2H-pyran-4-yl)-1H-imidazo[4,5-c]quinoline-8-carbonitrile]	191	160	–
FC(F)(F)c1cnn(Cc2nc3cnc4ccccc4c3n2C2CCOCC2)c1 [Example 43, 1-(tetrahydro-2H-pyran-4-yl)-2-{[4-(trifluoromethyl)-1H-pyrazol-1-yl]methyl}-1H-imidazo[4,5-c]quinoline]	110	119	–
F[C@@H]1CC[C@H](n2c(Cc3ccon3)nc3cnc4ccc(Br)cc4c32)C1 [Example 25, 8-bromo-1-[(1S,3R)-3-fluorocyclopentyl]-2-(1,2-oxazol-3-ylmethyl)-1H-imidazo[4,5-c]quinoline, formate salt]	30.8	56.3	–
Cc1nn2cc(Cc3nc4cnc5ccccc5c4n3C3CCOCC3)nc2s1 [Example 38, 2-[(2-methylimidazo[2,1-b][1,3,4]thiadiazol-6-yl)methyl]-1-(tetrahydro-2H-pyran-4-yl)-1H-imidazo[4,5-c]quinoline]	41.6	36	–
